# What was measured:
# EAE = conditions: mice; cited from earlier work
# [1] = in vivo; cited from earlier work
# AT84 tumors = experiment: AT84 orthotopic head and neck tumor study; type: in vivo, C3H mice; conditions: intratumoral 300 μg GA, 75 μg CpG or R4 every three days x5; anti-PD-1 250 μg i.p. every three days
# From the text: AT84 cells were derived from a spontaneous sarcomatoid carcinoma in the oral mucosa of a C3H mouse and were graciously donated by Aldo Venuti (Regina Elena National Cancer Institute, Rome, Italy). Cells tested negative for interspecies contamination (Idexx BioResearch) and rodent pathogens (21 pathogen IMPACT I PCR profile), and negative for Mycoplasm contamination prior to animal studies (Lonza, MycoAlert test kit). Idexx CellCheck STR (short tandem repeat) profile: MCA-4-2: 20.3, 21.3; MCA-5-5: 15; MCA-6-4: 18, 19; MCA-6-7: 12; MCA-9-2: 15; MCA-12-1: 16; MCA-15-3: 25.3, 26.3; MCA-18-3: 16; MCA-X-1: 26, 27.
# 4% mannitol was prepared by dissolving D-mannitol (Fisher BioReagents® #M120, Fair Lawn, NJ) in molecular biology grade water (Corning #46-000, Manassas, VA) and sterile filtered through a 0.22 μm PES membrane filter (Millex®-GP #SLGPR33RS, Merck Millipore Ltd., Tullagreen, Carrigtwohill). 1 ml syringe stocks of 20 mg/mL GA (Copaxone®, TEVA Neuroscience, Inc., Overland Park, KS) were donated by The University of Kansas Medical Center. CpG ODN 1826 was purchased from InvivoGen (#tlrl-1826, San Diego, CA) and was resuspended in LAL water to obtain 3.17 mg/mL (500 μM) stocks following manufacture's protocol. All subsequent dilutions were performed using 4% mannitol. R4 polyplexes were prepared as previously described (Pressnall et al). […]
# [2] = mouse, in vivo; cited from earlier work
# [3] = test system: differentially expressed genes; experiment: RNAseq differential gene expression, pre vs post treatment tumor; type: in vivo, human
# Description: RNASeq Analysis: A cutoff linear fold-change of 4 was used to select for the differentially expressed genes in each patient. Gene ontology (GO) of the biological process, functional annotation clustering, and Kyoto Encyclopedia of Genes and Genomes (KEGG) pathway analysis of the differentially expressed genes was performed using Database for Annotation, Visualization, and Integrated Discovery (DAVID) v2021^7,8.
# Immune biomarkers were assessed in tumor biopsies and compared with those in the resected tumors after treatment. Conventional RNA sequencing and a geographical sequencing platform (GeoMx) were used to assess immune markers at the transcriptional level. In the RNA-Seq gene expression analysis, genes were filtered for differentially expressed genes (|FC|<4) between pre-and post-samples for three patients.
substance,measurement,setting,value
Glatiramer acetate [GA],effect on EAE,EAE,suppress EAE
same,localization after injection,[1],primarily localized at the site of injection
same,tumor growth,AT84 tumors,no effect
same,aggregate formation near the injection site,[2],formed spherical aggregates near the injection site
same,"Gene Ontology enrichment, upregulated biological processes",[3]; all three patients,upregulation in genes involved in promoting an immune-rich tumor microenvironment
same,genes downregulated post treatment,[3]; patient 1,406 genes
same,genes upregulated post treatment,"[3]; patient 1, |FC|<4 filter as printed, listed as Copaxone",6355 genes
same,genes upregulated post treatment,"[3]; patient 1, |FC|<4 filter as printed, listed as Copaxone®","6,355 genes"
same,genes downregulated post treatment,[3]; patient 2,75 genes
same,genes upregulated post treatment,[3]; patient 2,647 genes
same,genes downregulated post treatment,[3]; patient 3,128 genes
same,genes upregulated post treatment,[3]; patient 3,5375 genes
same,"Gene Ontology enrichment, downregulated biological processes",[3]; three patients,No biological processes were consistently found to be downregulated post treatment

# Reference: US20260028404A1 (UNIVERSITY OF KANSAS, priority 2022, published 2026)
